Reference: PubChem BioAssay AID1918955 (Molecular Pharmacology Branch, DTP, NCI, 2023)

Tested on: NCI/ADR-RES complex spheroid viability
Test: Anticancer human tumor NCI/ADR-RES cell line growth inhibition;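 further: spheroids exposed to compounds for 7 days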;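 on viability, T/C: 100% = DMSO vehicle treated spheroids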
Settings: for IC50: curve of first compound; for viability, T/C: stronger effect = lower value
Summary of the method: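 Drug combinations with the LSD1 inhibitor iadademstat tested on tumor cells co-cultured as spheroids with endothelial cells and mesenchymal stem cells. Concentrations descended in half-log increments from clinical Cmax or 10 microM.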

[1] = second compound 0.1 µM, first compound 0.0316 µM
[2] = second compound 0.1 µM, first compound 0.1 µM
[3] = second compound 0.1 µM, first compound 0.316 µM
[4] = second compound 0.1 µM, first compound 1 µM
[5] = second compound 0.316 µM, first compound 0.0316 µM
[6] = second compound 0.316 µM, first compound 0.1 µM
[7] = second compound 0.316 µM, first compound 0.316 µM
[8] = second compound 0.316 µM, first compound 1 µM
[9] = second compound 1 µM, first compound 0.0316 µM
[10] = second compound 1 µM, first compound 0.1 µM
[11] = second compound 1 µM, first compound 0.316 µM
[12] = second compound 1 µM, first compound 1 µM
[13] = second compound 3.16 µM, first compound 0.0316 µM
[14] = second compound 3.16 µM, first compound 0.1 µM
[15] = second compound 3.16 µM, first compound 0.316 µM
[16] = second compound 3.16 µM, first compound 1 µM
[17] = second compound 10 µM, first compound 0.0316 µM
[18] = second compound 10 µM, first compound 0.1 µM
[19] = second compound 10 µM, first compound 0.316 µM
[20] = second compound 10 µM, first compound 1 µM
[21] = second compound 0.1 µM, first compound 0.00949 µM
[22] = second compound 0.1 µM, first compound 0.03 µM
[23] = second compound 0.1 µM, first compound 0.0949 µM
[24] = second compound 0.1 µM, first compound 0.3 µM
[25] = second compound 0.1 µM, first compound 0.949 µM
[26] = second compound 0.1 µM, first compound 3 µM
[27] = second compound 0.316 µM, first compound 0.00949 µM
[28] = second compound 0.316 µM, first compound 0.03 µM
[29] = second compound 0.316 µM, first compound 0.0949 µM
[30] = second compound 0.316 µM, first compound 0.3 µM
[31] = second compound 0.316 µM, first compound 0.949 µM
[32] = second compound 0.316 µM, first compound 3 µM
[33] = second compound 1 µM, first compound 0.00949 µM
[34] = second compound 1 µM, first compound 0.03 µM
[35] = second compound 1 µM, first compound 0.0949 µM
[36] = second compound 1 µM, first compound 0.3 µM
[37] = second compound 1 µM, first compound 0.949 µM
[38] = second compound 1 µM, first compound 3 µM
[39] = second compound 3.16 µM, first compound 0.00949 µM
[40] = second compound 3.16 µM, first compound 0.03 µM
[41] = second compound 3.16 µM, first compound 0.0949 µM
[42] = second compound 3.16 µM, first compound 0.3 µM
[43] = second compound 3.16 µM, first compound 0.949 µM
[44] = second compound 3.16 µM, first compound 3 µM
[45] = second compound 10 µM, first compound 0.00949 µM
[46] = second compound 10 µM, first compound 0.03 µM
[47] = second compound 10 µM, first compound 0.0949 µM
[48] = second compound 10 µM, first compound 0.3 µM
[49] = second compound 10 µM, first compound 0.949 µM
[50] = second compound 10 µM, first compound 3 µM
[51] = second compound 0.1 µM, first compound 0.00316 µM
[52] = second compound 0.1 µM, first compound 0.01 µM
[53] = second compound 0.316 µM, first compound 0.00316 µM
[54] = second compound 0.316 µM, first compound 0.01 µM
[55] = second compound 1 µM, first compound 0.00316 µM
[56] = second compound 1 µM, first compound 0.01 µM
[57] = second compound 3.16 µM, first compound 0.00316 µM
[58] = second compound 3.16 µM, first compound 0.01 µM
[59] = second compound 10 µM, first compound 0.00316 µM
[60] = second compound 10 µM, first compound 0.01 µM

SMILES: CC1(C)CCC(CN2CCN(c3ccc(C(=O)NS(=O)(=O)c4ccc(NCC5CCOCC5)c([N+](=O)[O-])c4)c(Oc4cnc5[nH]ccc5c4)c3)CC2)=C(c2ccc(Cl)cc2)C1 + NC1CCC(NC2CC2c2ccccc2)CC1
- IC50 (second compound 0.1 µM): > 10000 nM
- IC50 (second compound 0.316 µM): > 10000 nM
- IC50 (second compound 1 µM): > 10000 nM
- IC50 (second compound 3.16 µM): > 10000 nM
- IC50 (second compound 10 µM): > 10000 nM
- viability, T/C [1]: 98.7%
- viability, T/C [2]: 101%
- viability, T/C [3]: 93.5%
- viability, T/C [4]: 103%
- viability, T/C (second compound 0.1 µM, first compound 3.16 µM): 96.8%
- viability, T/C (second compound 0.1 µM, first compound 10 µM): 91.3%
- viability, T/C [5]: 91.8%
- viability, T/C [6]: 103%
- viability, T/C [7]: 99.2%
- viability, T/C [8]: 104%
- viability, T/C (second compound 0.316 µM, first compound 3.16 µM): 103%
- viability, T/C (second compound 0.316 µM, first compound 10 µM): 100%
- viability, T/C [9]: 97.2%
- viability, T/C [10]: 108%
- viability, T/C [11]: 102%
- viability, T/C [12]: 114%
- viability, T/C (second compound 1 µM, first compound 3.16 µM): 102%
- viability, T/C (second compound 1 µM, first compound 10 µM): 100%
- viability, T/C [13]: 99.6%
- viability, T/C [14]: 104%
- viability, T/C [15]: 101%
- viability, T/C [16]: 104%
- viability, T/C (second compound 3.16 µM, first compound 3.16 µM): 96.3%
- viability, T/C (second compound 3.16 µM, first compound 10 µM): 89.9%
- viability, T/C [17]: 84.5%
- viability, T/C [18]: 90%
- viability, T/C [19]: 105%
- viability, T/C [20]: 94.5%
- viability, T/C (second compound 10 µM, first compound 3.16 µM): 94.3%
- viability, T/C (second compound 10 µM, first compound 10 µM): 85.4%

SMILES: CCN(c1cc(-c2ccc(CN3CCOCC3)cc2)cc(C(=O)NCc2c(C)cc(C)[nH]c2=O)c1C)C1CCOCC1 + NC1CCC(NC2CC2c2ccccc2)CC1
- IC50 (second compound 0.1 µM): > 3000 nM
- IC50 (second compound 0.316 µM): > 3000 nM
- IC50 (second compound 1 µM): > 3000 nM
- IC50 (second compound 3.16 µM): > 3000 nM
- IC50 (second compound 10 µM): > 3000 nM
- viability, T/C [21]: 92.4%
- viability, T/C [22]: 92.5%
- viability, T/C [23]: 98.1%
- viability, T/C [24]: 98.1%
- viability, T/C [25]: 92.8%
- viability, T/C [26]: 89.3%
- viability, T/C [27]: 94.6%
- viability, T/C [28]: 97.9%
- viability, T/C [29]: 96.9%
- viability, T/C [30]: 95%
- viability, T/C [31]: 91.4%
- viability, T/C [32]: 81.5%
- viability, T/C [33]: 104%
- viability, T/C [34]: 99.5%
- viability, T/C [35]: 93.8%
- viability, T/C [36]: 99%
- viability, T/C [37]: 95.7%
- viability, T/C [38]: 89.2%
- viability, T/C [39]: 89.4%
- viability, T/C [40]: 98%
- viability, T/C [41]: 94%
- viability, T/C [42]: 96%
- viability, T/C [43]: 87.6%
- viability, T/C [44]: 89%
- viability, T/C [45]: 91.9%
- viability, T/C [46]: 89.8%
- viability, T/C [47]: 88.2%
- viability, T/C [48]: 86.1%
- viability, T/C [49]: 90.1%
- viability, T/C [50]: 80.9%

SMILES: COc1cc(Nc2ncc3c(n2)-c2ccc(Cl)cc2C(c2c(F)cccc2OC)=NC3)ccc1C(=O)O + NC1CCC(NC2CC2c2ccccc2)CC1
- IC50 (second compound 0.1 µM): 20.8 nM
- IC50 (second compound 0.316 µM): 21.2 nM
- IC50 (second compound 1 µM): 17.5 nM
- IC50 (second compound 3.16 µM): 16.6 nM
- IC50 (second compound 10 µM): 16.1 nM
- viability, T/C [51]: 92%
- viability, T/C [52]: 71%
- viability, T/C [1]: 38%
- viability, T/C [2]: 23.2%
- viability, T/C [3]: 18.2%
- viability, T/C [4]: 20.5%
- viability, T/C [53]: 92%
- viability, T/C [54]: 75%
- viability, T/C [5]: 37.1%
- viability, T/C [6]: 18.1%
- viability, T/C [7]: 20%
- viability, T/C [8]: 17.4%
- viability, T/C [55]: 90.4%
- viability, T/C [56]: 61%
- viability, T/C [9]: 40.2%
- viability, T/C [10]: 18.6%
- viability, T/C [11]: 16.6%
- viability, T/C [12]: 18.8%
- viability, T/C [57]: 90.6%
- viability, T/C [58]: 63.4%
- viability, T/C [13]: 32.7%
- viability, T/C [14]: 19.1%
- viability, T/C [15]: 12.3%
- viability, T/C [16]: 12.7%
- viability, T/C [59]: 82%
- viability, T/C [60]: 63.7%
- viability, T/C [17]: 30.3%
- viability, T/C [18]: 17.5%
- viability, T/C [19]: 9.8%
- viability, T/C [20]: 8.65%

SMILES: Cn1ncnc1C1c2n[nH]c(=O)c3cc(F)cc(c23)NC1c1ccc(F)cc1 (stereo not given) + NC1CCC(NC2CC2c2ccccc2)CC1
- IC50 (second compound 0.1 µM): > 100 nM
- IC50 (second compound 0.316 µM): > 100 nM
- IC50 (second compound 1 µM): > 100 nM
- IC50 (second compound 3.16 µM): > 100 nM
- IC50 (second compound 10 µM): > 100 nM
- viability, T/C (second compound 0.1 µM, first compound 0.000316 µM): 110%
- viability, T/C (second compound 0.1 µM, first compound 0.001 µM): 108%
- viability, T/C [51]: 110%
- viability, T/C [52]: 103%
- viability, T/C [1]: 103%
- viability, T/C [2]: 96.6%
- viability, T/C (second compound 0.316 µM, first compound 0.000316 µM): 109%
- viability, T/C (second compound 0.316 µM, first compound 0.001 µM): 106%
- viability, T/C [53]: 102%
- viability, T/C [54]: 102%
- viability, T/C [5]: 104%
- viability, T/C [6]: 103%
- viability, T/C (second compound 1 µM, first compound 0.000316 µM): 105%
- viability, T/C (second compound 1 µM, first compound 0.001 µM): 109%
- viability, T/C [55]: 105%
- viability, T/C [56]: 104%
- viability, T/C [9]: 102%
- viability, T/C [10]: 98%
- viability, T/C (second compound 3.16 µM, first compound 0.000316 µM): 106%
- viability, T/C (second compound 3.16 µM, first compound 0.001 µM): 109%
- viability, T/C [57]: 104%
- viability, T/C [58]: 109%
- viability, T/C [13]: 101%
- viability, T/C [14]: 105%
- viability, T/C (second compound 10 µM, first compound 0.000316 µM): 89.4%
- viability, T/C (second compound 10 µM, first compound 0.001 µM): 95.9%
- viability, T/C [59]: 102%
- viability, T/C [60]: 92.9%
- viability, T/C [17]: 89.8%
- viability, T/C [18]: 84.5%

SMILES: NS(=O)(=O)OCC1CC(n2ccc3c(NC4CCc5ccccc54)ncnc32)CC1O (stereo not given) + NC1CCC(NC2CC2c2ccccc2)CC1
- IC50 (second compound 0.1 µM): 986 nM
- IC50 (second compound 0.316 µM): 890 nM
- IC50 (second compound 1 µM): 740 nM
- IC50 (second compound 3.16 µM): 660 nM
- IC50 (second compound 10 µM): 353 nM
- viability, T/C [21]: 99.1%
- viability, T/C [22]: 98.9%
- viability, T/C [23]: 84.9%
- viability, T/C [24]: 73.8%
- viability, T/C [25]: 52.3%
- viability, T/C [26]: 14.4%
- viability, T/C [27]: 99.2%
- viability, T/C [28]: 92.4%
- viability, T/C [29]: 87.5%
- viability, T/C [30]: 74.7%
- viability, T/C [31]: 47.9%
- viability, T/C [32]: 15.7%
- viability, T/C [33]: 109%
- viability, T/C [34]: 95.6%
- viability, T/C [35]: 86.5%
- viability, T/C [36]: 70.3%
- viability, T/C [37]: 43.3%
- viability, T/C [38]: 16.8%
- viability, T/C [39]: 93.6%
- viability, T/C [40]: 93%
- viability, T/C [41]: 86.2%
- viability, T/C [42]: 70.8%
- viability, T/C [43]: 40.4%
- viability, T/C [44]: 20.4%
- viability, T/C [45]: 87.3%
- viability, T/C [46]: 86.8%
- viability, T/C [47]: 73.8%
- viability, T/C [48]: 50.5%
- viability, T/C [49]: 31.3%
- viability, T/C [50]: 7.61%
